# Assay results from patent US10682351B2, “Methods of administering elagolix” (AbbVie Inc., priority 2015, dated 2020).
# Like-named read-outs stand apart in the source and are kept apart here.
# Experiments:
# [1] = Safety in elagolix/ketoconazole interaction study (adverse events, vital signs, ECGs, laboratory tests); assay type: in vivo, human
# Method: (§1) Each subject received elagolix 150 mg single dose alone and on the 4th day of a six-day regimen of ketoconazole 400 mg q.d.
# Adverse event rates across treatment periods were 0% (elagolix alone), 82% (ketoconazole alone), and 36% (co-administration). The most common adverse event was nausea, which was noted as probably related to ketoconazole alone. […] Mean elagolix plasma concentration—time profiles for elagolix administered with ketoconazole, versus elagolix administered alone, are shown in FIG. 2.
# [2] = in vivo
# Method: This was an open-label, two-period, sequential study conducted in 12 females chosen according to the protocol selection criteria. Each subject received elagolix 150 mg single dose with and without rifampin 600 mg q.d. for 10 days. Intensive blood samples for elagolix assay were collected up to 36 hours after elagolix dosing in both periods. Safety data, including adverse event monitoring, vital signs, ECGs, and laboratory tests were collected during the study.
# Values for elagolix maximum concentration (Cmax) and area-under-the-curve (AUC) were estimated using noncompartmental methods. Analysis of variance was performed to compare elagolix Cmax and AUC with and without rifampin.
# [3] = Pharmacokinetic interaction between elagolix and ketoconazole (open-label, two-period, sequential study); assay type: in vivo, human; conditions: elagolix 150 mg single dose on 4th day of six-day ketoconazole 400 mg q.d. vs elagolix alone; healthy premenopausal females
# Method: In a second embodiment of this invention, it was discovered that ketoconazole increased elagolix exposure levels.
# as §1
# Analysis of variance was performed to compare the pharmacokinetic parameters of elagolix with and without ketoconazole.
Elagolix AUC increase [3] [fold],Elagolix Cmax increase [3] [fold],SMILES,"Adverse event rate ([1]; drug alone treatment period, elagolix 150 mg single dose or ketoconazole 400 mg q.d., healthy premenopausal females) [%]","Vital signs, ECG or laboratory measurements [2]","Vital signs, ECG or laboratory measurements ([1]; in vivo)"
,,"CC(=O)N1CCN(c2ccc(OCC3COC(Cn4ccnc4)(c4ccc(Cl)cc4Cl)O3)cc2)CC1 (centres unmarked) [ketoconazole, Ketoconazole, reference compound]",82,,
2.2,1.8,"COc1cccc(-c2c(C)n(Cc3c(F)cccc3C(F)(F)F)c(=O)n(C[C@H](NCCCC(=O)[O-])c3ccccc3)c2=O)c1F.[Na+] [Elagolix, 4-((R)-2-[5-(2-fluoro-3-methoxy-phenyl)-3-(2-fluoro-6-trifluoromethyl-benzyl)-4-methyl-2,6-dioxo-3,6-dihydro-2H-pyrimidin-1-yl]-1-phenyl-ethylamino)-butyric acid sodium salt]",,"No clinically significant vital signs, ECG or laboratory measurements were observed","No clinically significant vital signs, ECG or laboratory measurements were observed"
